Test results reported in US20230174642A1, “AFFINITY-MATURATED ANTI-ASIC1a ANTIBODIES” (SHANGHAITECH UNIVERSITY, priority 2019, published 2023).

T1: ASIC1a (Homo sapiens, UniProt P78348)
T1 construct: expressed in transfected cells
T1 sequence (P78348 1-528): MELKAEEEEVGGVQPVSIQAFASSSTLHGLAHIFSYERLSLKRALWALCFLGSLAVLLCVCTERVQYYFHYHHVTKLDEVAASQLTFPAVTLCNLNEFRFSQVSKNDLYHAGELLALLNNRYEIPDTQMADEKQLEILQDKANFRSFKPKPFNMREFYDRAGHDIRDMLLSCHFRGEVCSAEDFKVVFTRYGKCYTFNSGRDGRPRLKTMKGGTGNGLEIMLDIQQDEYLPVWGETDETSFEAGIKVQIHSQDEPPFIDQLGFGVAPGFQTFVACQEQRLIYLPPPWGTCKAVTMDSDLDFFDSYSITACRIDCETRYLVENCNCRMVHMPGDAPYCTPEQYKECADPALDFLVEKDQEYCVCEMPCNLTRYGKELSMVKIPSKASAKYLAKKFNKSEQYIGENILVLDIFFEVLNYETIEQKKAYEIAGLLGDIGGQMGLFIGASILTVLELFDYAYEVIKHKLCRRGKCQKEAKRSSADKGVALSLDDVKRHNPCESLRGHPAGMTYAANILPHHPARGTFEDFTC

T2: hASIC1a on CHO-K1 cells stably expressing hASIC1a (human, UniProt P78348 1-528)
T2 sequence (looked up): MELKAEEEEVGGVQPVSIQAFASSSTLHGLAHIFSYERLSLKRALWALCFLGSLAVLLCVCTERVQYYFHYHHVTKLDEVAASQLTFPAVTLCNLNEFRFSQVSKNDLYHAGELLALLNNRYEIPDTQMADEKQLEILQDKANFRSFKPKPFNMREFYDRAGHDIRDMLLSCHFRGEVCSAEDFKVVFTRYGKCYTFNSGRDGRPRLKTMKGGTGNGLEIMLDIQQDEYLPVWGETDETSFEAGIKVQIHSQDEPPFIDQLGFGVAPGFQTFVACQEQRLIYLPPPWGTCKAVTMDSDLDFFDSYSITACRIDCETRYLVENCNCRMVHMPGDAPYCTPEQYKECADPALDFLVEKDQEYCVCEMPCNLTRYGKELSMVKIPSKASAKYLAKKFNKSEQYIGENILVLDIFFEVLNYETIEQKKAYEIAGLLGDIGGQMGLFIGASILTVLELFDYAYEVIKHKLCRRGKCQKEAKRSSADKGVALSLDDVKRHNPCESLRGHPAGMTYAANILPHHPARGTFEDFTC


Assays:
ASIC1a = biological target: T1, ASIC1a; experiment: Patch clamp whole-cell recording of acid-induced hASIC1a currents; format: cell-based; settings: 30 μM amiloride, positive control; pH 7.4 to pH 6.0; read-out: inhibition of the acid-induced ASIC1a currents
Protocol: FIGS. 4A-4E show the effect of affinity-matured ASC06-IgG1 derivative antibodies on the hASIC1a currents. Shown are the representative current traces recorded from single CHO-K1 cells stably expressing hASIC1a in the absence or presence of 100 nM ASC06-IgG1 (FIG. 4A) or affinity-matured ASC06-IgG1 versions ASC06-01-IgG1 (FIG. 4B), ASC06-02-IgG1 (FIG. 4C), ASC06-03-IgG1 (FIG. 4D), or ASC06-04-IgG1 (FIG. 4E). Amiloride (30 μM) was used as a positive control. “Wash” represents the recovery of the current after the treatment of 100 nM indicated antibody followed by 15 min infusion of washing solution.
Whether the affinity-matured ASC06-IgG1 derivative antibodies have an effect on the acid-induced, hASIC1a-mediated electrical current in cells was tested. An hASIC1a overexpressing stable cell line was used as a model for these studies. Extracellular pH was decreased from pH 7.4 to pH 6.0 and the amplitudes of the hASIC1a-mediated inward currents were recorded in the whole-cell recording mode in the presence of the affinity-matured ASC06-IgG1 derivative antibodies (FIGS. 4A-4E). The ASIC1a inhibitor amiloride (30 μM) was used as a positive control for the inhibition of ASIC1a currents.

[1] = biological target: T2, hASIC1a on CHO-K1 cells stably …; experiment: cell-based or functional assay

| inhibition at 30 µM (ASIC1a) [%] | IC50 for the inhibition of ASIC1a currents, FMP assay [1] [nM] | Molecule |
| --- | --- | --- |
| > 50 |  | N=C(N)NC(=O)c1nc(Cl)c(N)nc1N [amiloride, reference compound] |
|  | 31 | ASC06-05-IgG1 (antibody, V domains shown) VH: QVQLQQSGGGLVQPGGSLRLSCAASGFTFSSYAMSWVRQAPGKGLEWVSAISGSGGSTYYADSVKGRFTISRDNSKNTLYLQMNSLRAEDTAVYYCAKDSYFGRAKGSWGQGTLVTVSS VL: QSALTQPASVSGSPGQSITISCTGTSSDVGAYNYVSWYQQQPGKAPKLMIYGVSNRPSGVSNRFSGSKSGNAASLTISGLQAEDEADYYCSSYTSSSTYVFGTGTKLTVLG |
